{"source": "paper PMC12036875", "about": "“Mitochondria-targeting natural product rhein conjugated with dichloroacetate as the dual inhibitor of glycolysis and oxidative phosphorylation to off energize cancer cells and induce ROS storm” (Theranostics, 2025)", "key": {"[1]": {"assay": "Stability in 2.5% DMSO-PBS by UV-Vis absorption", "assay_type": "physicochemical", "conditions": "room temperature, 0-12 h", "protocol": "(§1) Stability of drugs is vital indexes for anticancer application. The stability of Rhein-DCA conjugate in vitro was performed by dispersing it in 2.5% dimethyl sulfoxide (DMSO)-PBS at room temperature for 0, 2, 6 and 12 h. […] Furthermore, we also quantitatively analyzed the intracellular stability of Rhein-DCA using high-performance liquid chromatography (HPLC). After 4 h of uptake, the intracellular concentration of Rhein-DCA was 0.095 μg/10^6 cells within 4T1 cells.\nUV-Vis spectra were used to investigate the stability of Rhein-DCA conjugate. The Rhein-DCA was dispersed in 2.5% DMSO-PBS at room temperature, and the absorption spectrum was monitored at 0, 2, 6 and 12 h. High performance liquid chromatography (HPLC) was used to investigate the intracellular stability of Rhein-DCA conjugate. 4T1 cells were seeded in cell culture dish (diameter of 10 cm) at a density of 2 × 10^6 cells per dish and cultured in the incubator for 24 h. Then the cells were further treated with Rhein-DCA conjugate at a concentration of 11 μg/mL for 4 h. After removing media and washing the cells three times with PBS to remove the residual Rhein-DCA, the cells were incubated for another 2 h. […] A C18 column was used with methanol / 0.1% H₃PO₄ (83:17) as the mobile phase, flow rate 1.0 mL/min, fluorescence detector with an excitation wavelength of 443 nm and an emission wavelength of 530 nm."}, "4T1 cells [2]": {"test_system": "4T1 cells", "assay": "Intracellular stability by HPLC", "assay_type": "in vitro ADME, Mouse", "protocol": "as §1\nUV-Vis spectra were used to investigate the stability of Rhein-DCA conjugate. The Rhein-DCA was dispersed in 2.5% DMSO-PBS at room temperature, and the absorption spectrum was monitored at 0, 2, 6 and 12 h. High performance liquid chromatography (HPLC) was used to investigate the intracellular stability of Rhein-DCA conjugate. 4T1 cells were seeded in cell culture dish (diameter of 10 cm) at a density of 2 × 10^6 cells per dish and cultured in the incubator for 24 h. Then the cells were further treated with Rhein-DCA conjugate at a concentration of 11 μg/mL for 4 h. After removing media and washing the cells three times with PBS to remove the residual Rhein-DCA, the cells were incubated for another 2 h. Then, the cells were collected and washed twice with PBS. The cells were suspended in 1 mL methanol to obtain cell lysates by three freeze-thaw. Then the supernatant was collected after centrifugation at 13000 G for 10 min for HPLC analysis. A C18 column was used with methanol / 0.1% H₃PO₄ (83:17) as the mobile phase, flow rate 1.0 mL/min, fluorescence detector with an excitation wavelength of 443 nm and an emission wavelength of 530 nm."}, "4T1 cells [3]": {"test_system": "4T1 cells", "assay": "Intracellular and extracellular lactate determination", "assay_type": "cell-based, Mouse", "conditions": "6.25 μM, 24 h", "protocol": "Next, the end product of glycolysis, lactate, was analyzed in 4T1 cells to further confirm the efficacy of the Rhein-DCA conjugate in blocking glycolytic metabolism. […] Lactate will be released from cells and condense in the TME due to the sustained aerobic glycolysis. To determine whether the decline in intracellular lactate level was caused by an increased extracellular secretion or a disconnect in glycolysis pathway, we further detected the lactate content in the culture medium (Figure 2E). The changes in extracellular lactate level were consistent with those observed intracellularly across the tested groups.\n4T1 cells were seeded into 6-well plates at a density of 10 × 10^4 cells per well and cultured for 24 h. Cells were exposed to PBS, rhein, DCA, R + D and Rhein-DCA conjugate at a concentration of 6.25 μM for 24 h. (1) Medium: The medium from different groups was subjected to centrifugation at 9391 G for 10 min, 100 μL of supernatant was obtained, and 1 mL of extraction solution I was added. (2) Cells: After being washed twice with PBS, cells were harvested and suspended in extraction solution I (1 mL) for further lysis with sonication in ice bath (power 300 W, the duration of sonication is 3 s, the interval duration of 7 s, total sonication time of 3 min). […] Finally, the absorption value of each sample was detected with microplate reader at 570 nm."}, "4T1 tumor metastasis": {"test_system": "4T1 tumor metastasis", "assay": "Lung and liver metastasis (images, H&E)", "assay_type": "in vivo, Balb/c mice", "conditions": "20 mg/kg oral, 24 days", "protocol": "Correspondingly, the lung and liver tissues, which are the most common sites for primary tumor metastasis, were obtained and imaged, and then subjected to H&E staining for histopathological examination. […] The major organs (heart, liver, spleen, lung and kidney) were also excised for photographing and H&E staining. The blood biochemistry indexes, including ALT, AST, CREA and UREA were tested."}, "[4]": {"assay": "Pharmacokinetic study after oral administration", "assay_type": "in vivo, Sprague-Dawley (SD) rats", "conditions": "SD rats, I.G. 20 mg/kg, mean ± S.D., n = 3", "protocol": "HPLC was conducted to evaluate the absorption and distribution of Rhein-DCA conjugate in […] after oral administration. Rhein-DCA was orally administered to Sprague-Dawley (SD) rats at 20 mg/kg, and the concentration of the drug in the blood samples was serially measured at predefined time points.\nHPLC was used to evaluate the absorption and distribution of Rhein-DCA in […] after oral administration. Rhein-DCA was orally administered to Sprague-Dawley (SD) rats at 20 mg/kg. and the blood samples were serially collected at predefined time points (0.5, 1.5, 2, 3, 4, 5, 6, 8, 10 and 24 h). Centrifuge the blood at 3000 G for 10 min to separate serum, and the serum was mixed with methanol (1:3, v/v), vortexed for 3 min, and centrifuged at 13000 G for 10 min. The supernatant was filtered through a 0.22 µm membrane for HPLC assay. Pharmacokinetic parameters were derived using DAS 2.0 software with non-compartmental analysis (NCA)."}, "[5]": {"assay": "Tissue distribution after oral administration", "assay_type": "in vivo", "conditions": "4T1-bearing Balb/c mice, oral 20 mg/kg", "protocol": "4T1-bearing Balb/c mice were orally administered with Rhein-DCA (20 mg/kg), major organs (heart, liver, spleen, lung, kidney) and tumor tissues were harvested at 2, 6, and 24 h after administration. […] The Rhein-DCA conjugate could be absorbed rapidly and broadly distributed in major organs tissue after administration.\n4T1-bearing Balb/c mice were orally administered with Rhein-DCA (20 mg/kg), major organs (heart, liver, spleen, lung, kidney) and tumor tissues were harvested and weighed at 2, 6, and 24 h after administration. Each organ was homogenized with sonication in ice bath (power 400 W, the duration of sonication is 3 s, the interval duration of 3 s, total sonication time of 20 min). Centrifuge the homogenate at 13000 G for 10 min at 4°C to obtain the supernatant for HPLC."}}}
{"smiles": "O=C(OCCOC(=O)C(Cl)Cl)c1cc(O)c2c(c1)C(=O)c1cccc(O)c1C2=O", "note": "[Rhein-DCA]", "values": [{"measurement": "stability (UV-Vis absorption spectra)", "setting": "[1]", "result": "relatively stable"}, {"measurement": "intracellular concentration after 4 h of uptake", "setting": "4T1 cells [2]; 11 μg/mL, 4 h", "result": 0.095, "unit": "μg/10^6 cells"}, {"measurement": "residual intracellular concentration after removing drug and incubating another 2 h", "setting": "4T1 cells [2]; 4 h uptake then 2 h drug-free", "result": 0.080, "unit": "μg/10^6 cells"}, {"measurement": "intracellular degradation rate", "setting": "4T1 cells [2]; within 2 h", "result": "approximately 15.7%"}, {"measurement": "intracellular lactate content", "setting": "4T1 cells [3]", "result": "noticeable descent"}, {"measurement": "metastatic lesions in lungs and livers", "setting": "4T1 tumor metastasis", "result": "significantly decreased the number and size of metastatic lesions"}, {"measurement": "CL", "setting": "[4]", "result": 37.5, "unit": "mL/min/kg"}, {"measurement": "Vd", "setting": "[4]", "result": "17.11 ± 8.08", "unit": "L/kg"}, {"measurement": "AUC(0-inf)", "setting": "[4]; Sprague-Dawley, rat, serum, po", "result": 8980, "unit": "ng·h/mL"}, {"measurement": "AUC(0-t)", "setting": "[4]; Sprague-Dawley, rat, serum, po", "result": "8220 ± 330", "unit": "ng·h/mL"}, {"measurement": "Cmax", "setting": "[4]; Sprague-Dawley, rat, serum, po", "result": 2680, "unit": "ng/mL"}, {"measurement": "Tmax", "setting": "[4]; Sprague-Dawley, rat, serum, po", "result": 1.5, "unit": "h"}, {"measurement": "half-life", "setting": "[4]; Sprague-Dawley, rat, serum, po", "result": 5.54, "unit": "h"}, {"measurement": "intra-tumoral retention", "setting": "[5]", "result": "remaining quantifiable up to 24 h"}, {"measurement": "systemic clearance from major organs by 24 h", "setting": "[5]", "result": "extremely completed"}, {"measurement": "Tmax", "setting": "[5]; mouse, tumor, sampled at 2, 6, 24 h, read-out: time of peak concentration in tumors", "result": 6, "unit": "h"}]}
